The text below walks through data of paper PMC8745369, “Discovery of 2,4-thiazolidinedione-tethered coumarins as novel selective inhibitors for carbonic anhydrase IX and XII isoforms” (Journal of Enzyme Inhibition and Medicinal Chemistry, 2022).

Each structure is given as a SMILES string. Bounds are passed on as bounds.

For series [1], the target named is hCA I (Homo sapiens, UniProt P00915). In words: Stopped flow CO2 hydrase assay, hCA I inhibition. The series is classed as biochemical. To be noted: stopped flow technique; incubation time of 6 h; mean from 3 different assays; read-out: KI CA I.
Sequence of hCA I (P00915 whole entry): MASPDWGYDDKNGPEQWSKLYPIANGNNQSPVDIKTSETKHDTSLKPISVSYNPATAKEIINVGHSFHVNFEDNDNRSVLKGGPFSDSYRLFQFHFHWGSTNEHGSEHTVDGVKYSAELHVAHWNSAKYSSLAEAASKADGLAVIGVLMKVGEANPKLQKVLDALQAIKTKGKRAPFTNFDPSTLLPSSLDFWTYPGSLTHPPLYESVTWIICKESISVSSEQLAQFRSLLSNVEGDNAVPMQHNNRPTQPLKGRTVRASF
The target of series [2] is hCA II (Homo sapiens, UniProt P00918). Put plainly: Stopped flow CO2 hydrase assay, hCA II inhibition. In kind it is biochemical. The note with it: stopped flow technique; incubation time of 6 h; mean from 3 different assays; read-out: KI CA II.
Series [3] addresses hCA IX (Homo sapiens, UniProt Q16790). Put plainly: Stopped flow CO2 hydrase assay, hCA IX inhibition. The series is classed as biochemical. The note with it: stopped flow technique; incubation time of 6 h; mean from 3 different assays; read-out: KI CA IX.
Series [4] has as its target hCA XII (Homo sapiens, UniProt O43570). Put plainly: Stopped flow CO2 hydrase assay, hCA XII inhibition. In kind it is biochemical. The note with it: for Ki: stopped flow technique, incubation time of 6 h, mean from 3 different assays, read-out: KI CA XII.
The test system of series [5] is MCF-7 breast cancer cell line. Put plainly: MTT antiproliferative assay under hypoxic conditions. To be noted: Homo sapiens, MCF7, hypoxic conditions (CoCl2), 48 h exposure, mean ± SD of three experiments. The series is classed as cell-based. The method, then:
2. Anti-proliferative action toward human breast cell line
The examined human breast cancer cell line (MCF-7) has been obtained from American Type Culture Collection (ATCC). Cells line was maintained as monolayers in Dulbecco’s Modified Eagle’s Medium (DMEM) supplemented with 10% FBS, 2 mM L-glutamine, 100 U/ml penicillin and 100µg/ml streptomycin sulfate. Cobalt (II) chloride (CoCl2) was utilized as an inducer of HIF-1α to furnish a chemically-induced hypoxia. Cells were sub-cultured with trypsine /EDTA solution, counted with haemocytometer and plated onto 96-well plates (5000 cells/well) and left overnight to form a semi-confluent monolayer. Cell monolayers were treated in quadrates with […]
for an exposure time of 48 h. At the end of exposure, MTT solution in PBS (5 mg/ml) was then added to all well including no cell blank and left to incubate for 90 min. The formation of formazan crystals were visually confirmed using phase contract microscopy. DMSO (100 µl/well) was added to dissolve the formazan crystals with shaking for 10 min after which the absorbance was read at […]
(Formazan colour is commonly taken as a measure of viable cells.)

Sequence of hCA XII (O43570 25-354): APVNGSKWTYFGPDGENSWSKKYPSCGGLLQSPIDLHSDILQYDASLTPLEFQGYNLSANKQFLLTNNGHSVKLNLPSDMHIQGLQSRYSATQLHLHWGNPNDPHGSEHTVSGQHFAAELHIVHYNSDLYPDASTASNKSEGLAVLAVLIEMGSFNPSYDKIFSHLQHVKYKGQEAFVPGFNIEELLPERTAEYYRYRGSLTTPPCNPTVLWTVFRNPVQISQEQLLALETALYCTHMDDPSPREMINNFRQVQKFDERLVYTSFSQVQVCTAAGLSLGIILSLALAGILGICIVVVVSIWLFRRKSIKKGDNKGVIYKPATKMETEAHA

With `O=C(CN1C(=O)CSC1=O)c1cc2ccccc2oc1=O` [5a, 3–(2-Oxo-2–(2-oxo-2H-chromen-3-yl)ethyl)thiazolidine-2,4-dione], the Ki – broadly, a dissociation constant, usually derived from enzyme kinetics or from competition with a known ligand – in series [1] is over 100 µM; in series [2], over 100 µM; in series [3], 0.12 µM; in series [4], 0.15 µM.

For the compound `O=C(CN1C(=O)CSC1=O)c1cc2cc(Br)ccc2oc1=O` [5b, 3–(2-(6-Bromo-2-oxo-2H-chromen-3-yl)-2-oxoethyl)thiazolidine-2,4-dione], the melting point – broadly, the temperature of the solid-liquid transition – fell in the range of 239 to 241 °C. Also, the Ki in series [1] was over 100 µM. In addition, in series [2], the Ki was over 100 µM. Moreover, in series [3], the Ki is 0.24 µM. Also, the “diminished inhibition for hCA XII relative to the unsubstituted analogue 5a” value in series [4] (ratio of KI values) is listed as 2 fold. In series [4], the inhibition constant (Ki) was 0.31 µM.

With `O=C(CN1C(=O)SC(=Cc2ccccc2)C1=O)c1cc2ccccc2oc1=O` [10a, 5-Benzylidene-3–(2-oxo-2–(2-oxo-2H-chromen-3-yl)ethyl)thiazolidine-2,4-dione], the melting point fell in the range of 249 to 251 °C. Moreover, the Ki in series [1] is over 100 µM. Moreover, in series [2], the Ki is over 100 µM. Further, the Ki in series [3] turned out to be 0.82 µM. For the same compound, the Ki in series [4] came to 0.75 µM. The IC50 (in general, the point on the concentration scale where inhibition reaches its midpoint) in series [5] was determined as 3.13 ± 0.18 µM.

`Cc1ccc(C=C2SC(=O)N(CC(=O)c3cc4ccccc4oc3=O)C2=O)cc1` [10b, 5–(4-Methylbenzylidene)-3–(2-oxo-2–(2-oxo-2H-chromen-3-yl)ethyl)thiazolidine-2,4-dione] gave a melting point of 227 to 229 °C. Also, the Ki in series [1] is over 100 µM. Further, in series [2], the Ki is over 100 µM. Besides, the Ki in series [3] was determined as 4.3 µM. For the same compound, in series [4], the Ki turned out to be 4 µM.

For the compound `COc1ccc(C=C2SC(=O)N(CC(=O)c3cc4ccccc4oc3=O)C2=O)cc1` [10c, 5–(4-Methoxybenzylidene)-3–(2-oxo-2–(2-oxo-2H-chromen-3-yl)ethyl)thiazolidine-2,4-dione], the melting point fell in the range of 257 to 259 °C. In addition, the Ki in series [1] was over 100 µM. In addition, the Ki in series [2] was over 100 µM. In addition, the Ki in series [3] worked out at 5.8 µM. The Ki in series [4] came out at 4.5 µM.

For the compound `COc1ccc(OC)c(C=C2SC(=O)N(CC(=O)c3cc4ccccc4oc3=O)C2=O)c1` [10d, 5–(2,5-Dimethoxybenzylidene)-3–(2-oxo-2–(2-oxo-2H-chromen-3-yl)ethyl)thiazolidine-2,4-dione], the melting point lay in the range of 238 to 240 °C. Further, the Ki in series [1] is over 100 µM. Besides, the Ki in series [2] was over 100 µM. For the same compound, the Ki in series [3] was found to be 8.4 µM. Besides, the Ki in series [4] was 6.2 µM.

`O=C(CN1C(=O)SC(=Cc2ccc([N+](=O)[O-])cc2)C1=O)c1cc2ccccc2oc1=O` [10e, 5–(4-Nitrobenzylidene)-3–(2-oxo-2–(2-oxo-2H-chromen-3-yl)ethyl)thiazolidine-2,4-dione] had a melting point of 263 to 265 °C. Also, the Ki in series [1] was over 100 µM. Also, in series [2], the Ki was over 100 µM. The Ki in series [3] was found to be 12.3 µM. For the same compound, the Ki in series [4] was 8 µM.

For `O=C(CN1C(=O)SC(=Cc2ccccc2Cl)C1=O)c1cc2ccccc2oc1=O` [10f, 5–(2-Chlorobenzylidene)-3–(2-oxo-2–(2-oxo-2H-chromen-3-yl)ethyl)thiazolidine-2,4-dione], the melting point was in the range of 208 to 211 °C. Moreover, the Ki in series [1] is over 100 µM. In addition, the Ki in series [2] is over 100 µM. In series [3], the Ki was found to be 2.2 µM. Further, the Ki in series [4] was 3.8 µM.

On to `O=C(CN1C(=O)SC(=Cc2ccccc2Br)C1=O)c1cc2ccccc2oc1=O` [10g, 5–(2-Bromobenzylidene)-3–(2-oxo-2–(2-oxo-2H-chromen-3-yl)ethyl)thiazolidine-2,4-dione], for which the melting point fell in the range of 230 to 232 °C. Also, the Ki in series [1] is over 100 µM. For the same compound, the Ki in series [2] was over 100 µM. Further, the Ki in series [3] amounted to 2.3 µM. Moreover, the Ki in series [4] amounted to 4.1 µM.

Consider `O=C(CN1C(=O)SC(=Cc2ccccc2)C1=O)c1cc2cc(Br)ccc2oc1=O` [10h, 5-Benzylidene-3–(2-(6-bromo-2-oxo-2H-chromen-3-yl)-2-oxoethyl)thiazolidine-2,4-dione], for which the melting point was 252 to 254 °C. Also, the Ki in series [1] was over 100 µM. The Ki in series [2] was over 100 µM. Moreover, the inhibition constant Ki in series [3] is 0.93 µM. Moreover, in series [4], the Ki was 0.87 µM. This compound also came in with an IC50 in series [5] of 11.1 ± 0.65 µM.

In turn, `Cc1ccc(C=C2SC(=O)N(CC(=O)c3cc4cc(Br)ccc4oc3=O)C2=O)cc1` [10i, 3–(2-(6-Bromo-2-oxo-2H-chromen-3-yl)-2-oxoethyl)-5–(4-methylbenzylidene)thiazolidine-2,4-dione] had a melting point of 224 to 225 °C. Also, the Ki in series [1] is over 100 µM. The Ki in series [2] is over 100 µM. The Ki in series [3] came out at 6.2 µM. The inhibition constant (Ki) in series [4] turned out to be 2.3 µM.

Turning to `COc1ccc(C=C2SC(=O)N(CC(=O)c3cc4cc(Br)ccc4oc3=O)C2=O)cc1` [10j, 3–(2-(6-Bromo-2-oxo-2H-chromen-3-yl)-2-oxoethyl)-5–(4-methoxybenzylidene)thiazolidine-2,4-dione], the melting point was 245 to 247 °C. Besides, the Ki in series [1] was over 100 µM. Also, the Ki in series [2] is over 100 µM. Further, the inhibition constant (Ki) in series [3] was 8.9 µM. The Ki in series [4] was 4.9 µM.

`COc1ccc(OC)c(C=C2SC(=O)N(CC(=O)c3cc4cc(Br)ccc4oc3=O)C2=O)c1` [10k, 3–(2-(6-Bromo-2-oxo-2H-chromen-3-yl)-2-oxoethyl)-5–(2,5-dimethoxybenzylidene) thiazolidine-2,4-dione]: the melting point lay within 204 to 206 °C. Moreover, the Ki in series [1] is over 100 µM. Besides, the Ki in series [2] is over 100 µM. In addition, the Ki in series [3] was found to be 16.4 µM. Further, in series [4], the Ki was 6.6 µM.

As to `O=C(CN1C(=O)SC(=Cc2ccc([N+](=O)[O-])cc2)C1=O)c1cc2cc(Br)ccc2oc1=O` [10l, 3–(2-(6-Bromo-2-oxo-2H-chromen-3-yl)-2-oxoethyl)-5–(4-nitrobenzylidene)thiazolidine-2,4-dione], the melting point is 229 to 231 °C. Further, the Ki in series [1] is over 100 µM. Further, the Ki in series [2] is over 100 µM. Moreover, in series [3], the Ki is 18.2 µM. Moreover, the Ki in series [4] is 10.4 µM.

On to `O=C(CN1C(=O)SC(=Cc2ccccc2Cl)C1=O)c1cc2cc(Br)ccc2oc1=O` [10m, 3–(2-(6-Bromo-2-oxo-2H-chromen-3-yl)-2-oxoethyl)-5–(2-chlorobenzylidene)thiazolidine-2,4-dione], for which the melting point was in the range of 192 to 194 °C. In addition, the Ki in series [1] is over 100 µM. For the same compound, the inhibition constant (Ki) in series [2] was over 100 µM. For the same compound, in series [3], the Ki amounted to 2.9 µM. Also, the Ki in series [4] is 3.2 µM.

For `O=C(CN1C(=O)SC(=Cc2ccccc2Br)C1=O)c1cc2cc(Br)ccc2oc1=O` [10n, 3–(2-(6-Bromo-2-oxo-2H-chromen-3-yl)-2-oxoethyl)-5–(2-bromobenzylidene)thiazolidine-2,4-dione], the melting point lay in the range of 208 to 210 °C. Besides, in series [1], the Ki is over 100 µM. Besides, in series [2], the Ki was over 100 µM. Moreover, the Ki in series [3] worked out at 3.4 µM. For the same compound, in series [4], the Ki was found to be 2.8 µM.

Take `Cc1ccc(C=C2SC(=O)N(CC(=O)c3cc4ccccc4oc3=O)C2=O)o1` [11b, 5-((5-Methylfuran-2-yl)methylene)-3–(2-oxo-2–(2-oxo-2H-chromen-3-yl)ethyl)thiazolidine-2,4-dione]: the melting point is 227 to 229 °C. In series [1], the Ki was over 100 µM. The Ki in series [2] is over 100 µM. The Ki in series [3] worked out at 0.79 µM. For the same compound, the Ki in series [4] came to 1.1 µM. For the same compound, the IC50 in series [5] was 4.14 ± 0.24 µM.
